This passage reports IC50 results from patent US11161864B2, “Sting agonists” (Venenum Biodesign, LLC, priority 2018, dated 2021).

Chain of murine STING protein (amino acids 154-378) (Q3TBT3 154-378): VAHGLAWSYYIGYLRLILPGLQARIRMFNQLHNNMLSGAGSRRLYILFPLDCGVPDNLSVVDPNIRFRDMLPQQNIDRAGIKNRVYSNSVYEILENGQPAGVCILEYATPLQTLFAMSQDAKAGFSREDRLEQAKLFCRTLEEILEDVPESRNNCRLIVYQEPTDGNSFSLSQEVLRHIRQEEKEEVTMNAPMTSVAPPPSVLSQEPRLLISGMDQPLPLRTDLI

The assay addresses murine STING protein (amino acids 154-378) (Mus musculus (Mouse), UniProt Q3TBT3). Nature of the assay: Murine STING [3H] 2′,3′-cGAMP scintillation proximity competition binding assay. Particulars: read-out: Murine Binding IC50.
By IC50 is commonly meant the point on the concentration scale where inhibition reaches its midpoint. In the case of `Nc1nc2c(ncn2[C@@H]2O[C@@H]3COP(=O)(S)OCCn4c(nc5cncnc54)COP(=O)(S)O[C@@H]2[C@@H]3O)c(=O)[nH]1` (mixture of isomers) [Example 15A, (1R,21R,23R,24R)-23-(2-Amino-6-oxo-6,9-dihydro-1H-purin-9-yl)-24-hydroxy-3,18-disulfanyl-2,4,17,19,22-pentaoxa-7,10,12,14-tetraaza-3lambda5,18lambda5-diphosphatetracyclo[19.2.1.06,14.08,13]tetracosa-6,8,10,12-tetraene-3,18-dione], the half-maximal inhibitory concentration (IC50) is below 1000 nM. In the case of `Nc1nc2c(ncn2[C@@H]2O[C@@H]3COP(=O)(S)OCCn4c(nc5c(=O)[nH]cnc54)COP(=O)(S)O[C@@H]2[C@@H]3F)c(=O)[nH]1` (single isomer, unassigned) [Example 3B] it was 1000 to 9990 nM. The same measure for `Nc1nc2c(ncn2[C@@H]2O[C@@H]3COP(=O)(S)OCCn4c(nc5c(=O)[nH]cnc54)COP(=O)(S)O[C@@H]2[C@@H]3F)c(=O)[nH]1` (single isomer, unassigned) [Example 3C]: below 1000 nM; for `Nc1nc2c(ncn2[C@@H]2O[C@@H]3COP(=O)(S)OCCn4c(nc5c(=O)[nH]cnc54)COP(=O)(S)O[C@@H]2[C@@H]3F)c(=O)[nH]1` (single isomer, unassigned) [Example 3D]: 1000 to 9990 nM. The same measure for `Nc1nc2c(ncn2[C@@H]2O[C@@H]3COP(=O)(O)OCCn4c(nc5cncnc54)COP(=O)(S)O[C@@H]2[C@@H]3F)c(=O)[nH]1` (single isomer, unassigned) [Example 5A]: below 1000 nM; for `Nc1nc2c(ncn2[C@@H]2O[C@@H]3COP(=O)(O)OCCn4c(nc5cncnc54)COP(=O)(S)O[C@@H]2[C@@H]3F)c(=O)[nH]1` (single isomer, unassigned) [Example 5B]: 1000 to 9990 nM. Take `Nc1nc2c(ncn2[C@@H]2O[C@@H]3COP(=O)(S)OCCn4c(nc5cncnc54)COP(=O)(O)O[C@@H]2[C@@H]3F)c(=O)[nH]1` (single isomer, unassigned) [Example 6A]: the IC50 is below 1000 nM.

As to `Nc1nc2c(ncn2[C@@H]2O[C@@H]3COP(=O)(S)OCCn4c(nc5cncnc54)COP(=O)(O)O[C@@H]2[C@@H]3F)c(=O)[nH]1` (single isomer, unassigned) [Example 6B], the concentration for half-maximal inhibition (IC50) was below 1000 nM.

For `Nc1nc2c(ncn2[C@@H]2O[C@@H]3COP(=O)(S)OCCn4c(nc5cnc(C6CC6)nc54)COP(=O)(S)O[C@@H]2[C@@H]3F)c(=O)[nH]1` (single isomer, unassigned) [Example 12C], the IC50 is below 1000 nM. Consider `Nc1nc2c(ncn2[C@@H]2O[C@@H]3COP(=O)(S)OCCn4c(nc5cnc(C6CC6)nc54)COP(=O)(S)O[C@@H]2[C@@H]3F)c(=O)[nH]1` (single isomer, unassigned) [Example 12D], for which the half-inhibitory concentration (IC50) fell in the range of 1000 to 9990 nM.

In the case of `Nc1nc2ncn([C@@H]3O[C@@H]4COP(=O)(S)OCCn5c(nc6cc(Cl)cnc65)COP(=O)(S)O[C@@H]3[C@@H]4F)c2c(=O)[nH]1` (single isomer, unassigned) [Example 13A], the IC50 is below 1000 nM. On to `Nc1nc2c(ncn2[C@@H]2O[C@@H]3COP(=O)(S)OCCn4c(nc5cc(Cl)cnc54)COP(=O)(S)O[C@@H]2[C@@H]3F)c(=O)[nH]1` (single isomer, unassigned) [Example 14A], for which the IC50 is below 1000 nM.

On to `Nc1nc2c(ncn2[C@@H]2O[C@@H]3COP(=O)(S)OCCn4c(nc5cc(Cl)cnc54)COP(=O)(S)O[C@@H]2[C@@H]3F)c(=O)[nH]1` (single isomer, unassigned) [Example 14C], for which the IC50 is below 1000 nM. In the case of `Nc1nc2c(ncn2[C@@H]2O[C@@H]3COP(=O)(S)OCCn4c(nc5cc(Cl)cnc54)COP(=O)(S)O[C@@H]2[C@@H]3F)c(=O)[nH]1` (single isomer, unassigned) [Example 14D] it was below 1000 nM; in that of `Nc1nc2c(ncn2[C@@H]2O[C@@H]3COP(=O)(S)OCCn4c(nc5cncnc54)COP(=O)(S)O[C@@H]2[C@@H]3O)c(=O)[nH]1` (single isomer, unassigned) [Example 15C], below 1000 nM; in that of `Nc1nc2c(ncn2[C@@H]2O[C@@H]3COP(=O)(S)OCCn4c(nc5cncnc54)COP(=O)(S)O[C@@H]2[C@@H]3O)c(=O)[nH]1` (single isomer, unassigned) [Example 15D], below 1000 nM. The same measure for `Nc1nc2c(ncn2[C@@H]2O[C@@H]3COP(=O)(S)OCCn4nc(-c5cncs5)nc4COP(=O)(S)O[C@@H]2[C@@H]3F)c(=O)[nH]1` (single isomer, unassigned) [Example 16A]: below 1000 nM; for `Nc1nc2c(ncn2[C@@H]2O[C@@H]3COP(=O)(S)OCCn4nc(-c5cncs5)nc4COP(=O)(S)O[C@@H]2[C@@H]3F)c(=O)[nH]1` (single isomer, unassigned) [Example 16C]: below 1000 nM.

For the compound `Nc1nc2c(ncn2[C@@H]2O[C@@H]3COP(=O)(S)OCCn4nc(-c5cncs5)nc4COP(=O)(S)O[C@@H]2[C@@H]3F)c(=O)[nH]1` (single isomer, unassigned) [Example 16D], the IC50 was below 1000 nM. Turning to `Nc1nc2c(ncn2[C@@H]2O[C@@H]3COP(=O)(S)OCCn4c(nc5cnccc54)COP(=O)(S)O[C@@H]2[C@@H]3F)c(=O)[nH]1` (single isomer, unassigned) [Example 17C], the IC50 was below 1000 nM. Take `C[C@H]1COP(=O)(S)OC[C@H]2O[C@@H](n3cnc4c(=O)[nH]c(N)nc43)[C@H](OP(=O)(S)OCc3nc4cncnc4n31)[C@@H]2F` (single isomer, unassigned) [Example 20D]: the IC50 was in the range of 10000 to 100000 nM. Take `Nc1nc2c(nc3n2CCOP(=O)(S)OC[C@H]2O[C@@H](n4cnc5c(N)ncnc54)[C@H](OP(=O)(S)OC3)[C@@H]2F)c(=O)[nH]1` (single isomer, unassigned) [Example 23D]: the IC50 was in the range of 10000 to 100000 nM. In the case of `Nc1nc2c(nnn2[C@@H]2O[C@@H]3COP(=O)(S)OCCn4c(nc5cncnc54)COP(=O)(S)O[C@@H]2[C@@H]3F)c(=O)[nH]1` (single isomer, unassigned) [Example 24A] it was below 1000 nM; in that of `Nc1nc2c(nnn2[C@@H]2O[C@@H]3COP(=O)(S)OCCn4c(nc5cncnc54)COP(=O)(S)O[C@@H]2[C@@H]3F)c(=O)[nH]1` (single isomer, unassigned) [Example 24B], 10000 to 100000 nM. `Nc1nc2c(nnn2[C@@H]2O[C@@H]3COP(=O)(S)OCCn4c(nc5cncnc54)COP(=O)(S)O[C@@H]2[C@@H]3F)c(=O)[nH]1` (single isomer, unassigned) [Example 24C]: the IC50 was below 1000 nM. The same measure for `Nc1nc2c(nnn2[C@@H]2O[C@@H]3COP(=O)(S)OCCn4c(nc5cncnc54)COP(=O)(S)O[C@@H]2[C@@H]3F)c(=O)[nH]1` (single isomer, unassigned) [Example 24D]: below 1000 nM. In the case of `Nc1nc2c(ncn2[C@@H]2O[C@@H]3COP(=O)(S)OCCn4nc(-c5ccncc5)nc4COP(=O)(S)O[C@@H]2[C@@H]3F)c(=O)[nH]1` (single isomer, unassigned) [Example 34B] it was 1000 to 9990 nM. In the case of `Nc1nc2c(ncn2[C@@H]2O[C@@H]3COP(=O)(S)OCCn4nc(-c5ccncc5)nc4COP(=O)(S)O[C@@H]2[C@@H]3F)c(=O)[nH]1` (single isomer, unassigned) [Example 34C] it was below 1000 nM; in that of `Nc1nc2c(ncn2[C@@H]2O[C@@H]3COP(=O)(S)OCCn4nc(-c5ccncc5)nc4COP(=O)(S)O[C@@H]2[C@@H]3F)c(=O)[nH]1` (single isomer, unassigned) [Example 34D], 1000 to 9990 nM.
